Laboratory results: patent US8993606B2, “Oral formulations for treating metal overload” (FerroKin BioSciences, Inc., priority 2011, dated 2015)
Like-named read-outs stand apart in the source and are kept apart here.

Assays:
[1] = test system: adult subjects with documented transfusional iron overload; assay: Safety: ongoing randomized open-label study, 16 or 32 mg/kg/day, transfusional iron overload; type: in vivo, human
Procedure: This study is an ongoing multicenter, randomized, open-label study of adult subjects with documented transfusional iron overload in need of chelation therapy. Subjects received investigational product for 24 weeks with an extension of 72 weeks for the evaluation of long-term safety and efficacy. Subjects were stratified according to transfusional iron intake (transfusion burden) then randomized to receive Compound 1 at 16 or 32 mg/kg/day. The investigational product was administered orally once daily for 24 weeks. At the conclusion of the 24-week dosing period, qualified subjects were allowed to continue receiving Compound 1 for an additional 72 weeks. Dose adjustments from 24 weeks onward are permitted if clinically indicated. Fifty-one subjects enrolled and completed the first 24 weeks of the study; 49 subjects entered the 72-week extension.

[2] = Example 7: high single doses in healthy human subjects (PK); type: in vivo; settings: fasted; for CL renal / AUC(0-inf) / Cmax / Tmax / Vd/F / half-life: both sexes, human; for CL renal: plasma and urine; for AUC(0-inf) / Cmax / Tmax / Vd/F / half-life: plasma; for Vd/F: read-out: Vz/F; for half-life: read-out: t½ (converted)
Procedure: Subjects were male and female healthy human volunteers aged between 18 and 50 years, free from clinically significant illness or disease as determined by their medical/surgical history, physical examination etc., and having a serum ferritin>20 ng/mL. Subjects were given, in the fasted state, either 30, 40, 50, or 60 mg/kg Compound 1 as a blended formulation of 96% (wt/wt) drug substance (powder) with 3% (wt/wt) croscarmellose sodium and 1% (wt/wt) magnesium stearate dispensed in hard gelatin capsules in strengths of 50 mg, 100 mg, 250 mg, and 375 mg.
The 30 and 50 mg/kg dose groups each contained seven subjects; data from only four of these subjects was used to calculate AUCinf, t½, CL/F, and VZ/F. The 40 and 60 mg/kg dose groups each contained three subjects; data from only three of these subjects was used to calculate AUCinf, t½, CL/F, and VZ/F.
Blood samples of approximately 7 mL were drawn via cannula at 0.25, 0.5, 0.75, 1, 1.25, 1.5, 2, 2.5, 4, 8, 12 and 24 hours post-dose, for pharmacokinetic analysis. (See FIG. 2.) Urine was collected over the time periods 0-4, 4-8, 8-12 and 12-24 hours post-dose for pharmacokinetic and pharmacodynamic assessment.
PK plasma and PK urine samples were assayed by a validated LC/MS/MS method, specific for the determination of Compound 1. Pharmacokinetic parameters for Compound 1 will be calculated using non-compartmental analysis. Only plasma and urine concentrations greater than the lower limits of quantitation (LOQ, 5 ng/mL in plasma and urine) for the assays will be used in the pharmacokinetic analysis.

[3] = test system: patients with transfusional iron overload; assay: Example 11: efficacy study, serum ferritin; type: in vivo, human
Procedure: The goal of this experiment was to: 1. evaluate the safety and tolerability based on clinical assessments of two doses (16 and 32 mg/kg/d) of Compound 1 when administered daily for 24 weeks to patients with transfusional iron overload; 2. identify a differential response between dose groups in liver iron concentration determined by magnetic resonance imaging (MRI) after 24 weeks of dosing; and 3. assess the safety and efficacy activity of Compound 1 when administered daily for up to 96 weeks.
This experiment is an open-label, randomized study of two dose levels (16 and 32 mg/kg/d) of Compound 1 administered once daily for 24 weeks to eligible patients with transfusional iron overload requiring chelation therapy, with a dosing extension of 72 additional weeks.
Patients were assigned to one of two strate: “high” or “low” transfusion burden based on the average iron intake of the six transfusion sessions. Patients within each transfusion burden groups were randomized to one of two Compound 1 treatment arms: 16 mg/kg/d (16 mpk) or 32 mg/kg/d (32 mpk). The stratification followed by randomization to treatment arms helps to ensure an equal distribution of patients with “high” and “low” transfusion burdens to the high or low dose of Compound 1. Each treatment arm received one dose of Compound 1 daily for 24 weeks.
At the conclusion of the 24 week dosing period, patients who qualify and consent to continue treatment continued for an additional 72 weeks of Compound 1 dosing.
The inclusion of 25 patients in each treatment group provided a statistical power of 0.80 to detect, within 6 months, an LIC difference (normalized for initial LIC) of 3 mg/g dry weight between the two dose groups as determined by MRI. Baseline characteristics between dose groups were compared using Fisher extract test or Wilcoxon rank sum test as appropriate. The change in baseline to week 12, 24, and 72 values for all pharmacodynamics parameters were analyzed by an ANCOVA model with main effect for treatment group with baselines value for the corresponding parameters and transfusion burdon (iron input) during the study and baseline liver iron concentration as covariates comparing the two active treatment groups. T2* values were natural log transformed and summarized as the geometric mean (the antilog of the mean of the log data) plus or minus the co-efficient of variation (CV) defined as square root of eMSE where MSE is defined as the mean square error and subject to ANCOVA setting the p value as the threshold for statistical significance at 0.05 (confidence level of 95%).

COCCOCCOCCOc1cccc(C2=N[C@@](C)(C(=O)O)CS2)c1O [Compound 1, (S)-4,5-Dihydro-2-[2-hydroxy-3-(3,6,9-trioxadecyloxy)phenyl]-4-methyl-4-thiazolecarboxylate magnesium hydroxide]
TEAE headache ([1]; 5 subjects): 9.8%
TEAE increased transaminases ([1]; 8 subjects): 15.7%
Treatment-related gastrointestinal TEAEs ([1]; 17 subjects): 33.3%
subjects with at least 1 related TEAE ([1]; 31/51 subjects): 61%
Elevations in transaminases ([1]; 72 week treatment period): not significant
Mean serum creatinine ([1]; 72 week treatment period, remained in the normal range): did not change from baseline
TEAE diarrhea ([1]; N=3): 5.9%
TEAE flatulence ([1]; N=6): 11.8%
Any TEAE ([1]; Total (N = 51)): 49 (96.1%) N (%)
Creatinine increase >33% and creatinine <=ULN at 2 consecutive post-baseline visits ([1]; Total (N = 51)): 2 (3.9) N (%)
Creatinine increase >33% and creatinine >ULN at 2 consecutive post-baseline visits ([1]; Total (N = 51)): 0 N (%)
Creatinine increase and creatinine >ULN at 2 consecutive post-baseline visits ([1]; Total (N = 51)): 1 (2.0) N (%)
Serious TEAE ([1]; Total (N = 51)): 5 (9.8%) N (%)
TEAE Related to Investigational Product ([1]; Total (N = 51)): 31 (60.8%) N (%)
TEAE Requiring Discontinuation of Study Drug ([1]; Total (N = 51)): 14 (27.5%) N (%)
serum creatinine levels ([1]; as of Week 48): no trends
tolerability ([1]; doses tested (8-50 mg/kg/day)): generally well tolerated
SAEs ([1]; in four subjects, none judged related to treatment): 10 SAEs
severity of all related TEAEs ([1]; in vivo): mild to moderate
CL renal ([2]; single oral dose 30 mg/kg): 139 ± 13.2 mL/min
CL renal ([2]; single oral dose 40 mg/kg): 152 ± 18 mL/min
CL renal ([2]; single oral dose 50 mg/kg): 103 ± 16.2 mL/min
CL renal ([2]; single oral dose 60 mg/kg): 146 ± 34.4 mL/min
AUC(0-inf) ([2]; single oral dose 30 mg/kg): 161 ± 24.1 µg·h/mL
Cmax ([2]; single oral dose 30 mg/kg): 68.2 ± 17.5 µg/mL
Tmax ([2]; single oral dose 30 mg/kg): 1 h
Vd/F ([2]; single oral dose 30 mg/kg): 248 ± 58.8 L
half-life ([2]; single oral dose 30 mg/kg): 12.1 ± 3.05 h
AUC(0-inf) ([2]; single oral dose 40 mg/kg): 195 ± 67.3 µg·h/mL
Cmax ([2]; single oral dose 40 mg/kg): 87.9 ± 15 µg/mL
Tmax ([2]; single oral dose 40 mg/kg): 1.38 h
Vd/F ([2]; single oral dose 40 mg/kg): 542 ± 657 L
half-life ([2]; single oral dose 40 mg/kg): 18.6 ± 19.2 h
AUC(0-inf) ([2]; single oral dose 50 mg/kg): 236 ± 58.3 µg·h/mL
Cmax ([2]; single oral dose 50 mg/kg): 91.7 ± 18.8 µg/mL
Tmax ([2]; single oral dose 50 mg/kg): 1.5 h
Vd/F ([2]; single oral dose 50 mg/kg): 338 ± 272 L
half-life ([2]; single oral dose 50 mg/kg): 12.8 ± 7.66 h
AUC(0-inf) ([2]; single oral dose 60 mg/kg): 227 ± 44.7 µg·h/mL
Cmax ([2]; single oral dose 60 mg/kg): 104 ± 36.7 µg/mL
Tmax ([2]; single oral dose 60 mg/kg): 1.25 h
Vd/F ([2]; single oral dose 60 mg/kg): 285 ± 159 L
half-life ([2]; single oral dose 60 mg/kg): 8.44 ± 3.83 h
CL/F ([2]; single oral dose 30 mg/kg): 239 ± 17.2 mL/min
CL/F ([2]; single oral dose 40 mg/kg): 290 ± 73.8 mL/min
CL/F ([2]; single oral dose 50 mg/kg): 286 ± 56.1 mL/min
CL/F ([2]; single oral dose 60 mg/kg): 381 ± 55.8 mL/min
Serum Ferritin Change from Baseline to Week 72, Geometric Mean ([3]; 16 mg/kg/d group): 1.14
Serum Ferritin Change from Baseline to Week 72, Mean ([3]; 16 mg/kg/d group): 233.21
Serum Ferritin Change from Baseline to Week 72, Median ([3]; 16 mg/kg/d group): 231.50
Serum Ferritin Week 72, Geometric Mean ([3]; 16 mg/kg/d group): 2418.49
Serum Ferritin Week 72, Mean ([3]; 16 mg/kg/d group): 2873.93
Serum Ferritin Week 72, Median ([3]; 16 mg/kg/d group): 2544.50
Serum Ferritin Change from Baseline to Week 72, Geometric Mean ([3]; 32 mg/kg/d group): 0.89
Serum Ferritin Change from Baseline to Week 72, Mean ([3]; 32 mg/kg/d group): −150.82
Serum Ferritin Change from Baseline to Week 72, Median ([3]; 32 mg/kg/d group): −436.00
Serum Ferritin Week 72, Geometric Mean ([3]; 32 mg/kg/d group): 2441.03
Serum Ferritin Week 72, Mean ([3]; 32 mg/kg/d group): 3026.82
Serum Ferritin Week 72, Median ([3]; 32 mg/kg/d group): 2396.00
Serum Ferritin Change from Baseline to Week 72, Geometric Mean ([3]; Total): 0.99
Serum Ferritin Change from Baseline to Week 72, Mean ([3]; Total): 22.61
Serum Ferritin Change from Baseline to Week 72, Median ([3]; Total): −56.00
Serum Ferritin Week 72, Geometric Mean ([3]; Total): 2430.83
Serum Ferritin Week 72, Mean ([3]; Total): 2957.77
Serum Ferritin Week 72, Median ([3]; Total): 2398.00
